Literature values, collected in patent US6461591B1, “Medical aerosol formulations” (Jago Research AG, priority 1997, dated 2002).

Conditions: at 20° C.

| SMILES | vapour pressure | density |
| --- | --- | --- |
| FCC(F)(F)F [HFA 134a, 1,1,1,2-tetrafluoroethane] | about 6 bar |  |
| FC(C(F)(F)F)C(F)(F)F [HFA 227, 1,1,1,2,3,3,3-heptafluoropropane] | about 4.2 bar | about 1.4 mg/ml |
